From patent publication US20120040996A1, “3-BENZOFURANYL-INDOL-2-ONE DERIVATIVES SUBSTITUTED AT THE 3 POSITION, PREPARATION THEREOF, AND THERAPEUTIC USE THEREOF” (SANOFI, priority 2009, published 2012) come the findings set out here.

SMILES strings stand for the structures.

This assay concerns the target T1, ghrelin receptor (Rattus norvegicus, UniProt O08725).
T1 construct: Strips of approximately 1 cm (5 mm wide) of gastric fundus were cut out along the longitudinal axis; from tissue; host or cells: rat gastric fundus strips
Description: Ghrelin concentration-response on electrically stimulated isolated rat gastric fundus strips (headed "In Vivo Test"). The settings on record: electric-field stimulation, ghrelin 0.1 nM-1 μM, antagonist contact time 30 minutes, read-out: IC50, antagonist activity towards the ghrelin receptor. As to the method: Male Crl CD BR rats (Charles River, Italy) weighing 150-175 g were housed in a chamber at regulated temperature (22±1° C.) and humidity (55±10%) and with a 12-hour lightness-darkness cycle, for at least 7 days before their use. Feed and water were available ad libitum. The feed was removed 18 hours before sacrificing the animals. The rats were sacrificed by cervical dislocation, and the stomach was removed surgically, opened along the shorter curvature and placed in a Krebs solution (of composition (mM): 118.4 NaCl; 4.7 KCl; 2.5 CaCl2; 3.7 NaH2PO4; 1.2 MgSO4; 25 NaHCO3; 5.6 glucose). The animals were cared for and sacrificed according to the Sanofi-Aventis international code of ethics and the international principles governing the care and treatment of laboratory animals (EEC Directive 86/609, DJL358, 1, 12 Dec. 1987). […] The contractions were recorded by computer with a data recording and analysis system (Power Lab, Chart 5) connected to isotonic transducers (Ugo Basile, Varese, Italy) via preamplifiers (Octal Bridge Amp). […] The pKb values for the antagonists were calculated according to the Cheng-Prusoff equation (Kenakin et al., Competitive Antagonism, Pharmacologic Analysis of Drug-Receptor Interaction, 3rd edition, 331-373, Philadelphia, New York; Raven: Lippincott, 1997).

T1 sequence (O08725 whole entry): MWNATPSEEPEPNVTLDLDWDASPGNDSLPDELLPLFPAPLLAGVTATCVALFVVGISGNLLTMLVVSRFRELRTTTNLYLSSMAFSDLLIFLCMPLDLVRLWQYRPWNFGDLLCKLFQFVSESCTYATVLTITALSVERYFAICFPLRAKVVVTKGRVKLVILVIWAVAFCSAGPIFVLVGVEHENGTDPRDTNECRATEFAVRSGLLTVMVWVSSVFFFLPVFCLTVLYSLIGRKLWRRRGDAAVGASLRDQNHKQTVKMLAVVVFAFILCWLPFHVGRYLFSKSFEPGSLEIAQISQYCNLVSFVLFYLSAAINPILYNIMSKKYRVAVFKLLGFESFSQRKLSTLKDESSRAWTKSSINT

In the case of `CCN1CCN(CC(=O)NC2(c3ccc4occc4c3)C(=O)Nc3cc(Cl)cc(Cl)c32)CC1` (single isomer, unassigned; (+)) [Example 1, (+)-N-[4,6-Dichloro-3-(benzofuran-5-yl)-2-oxo-2,3-dihydro-1H-indol-3-yl]-2-(4-ethylpiperazin-1-yl)acetamide], the 50% inhibitory concentration (IC50) was determined as 22 nM.
